Data published in patent US20260263628A1, “AN ORAL LIQUID COMPOSITION OF VINORELBINE” (INSTITUT GUSTAVE ROUSSY, priority 2022, published 2026).
Counter-ions that a name gives are not always drawn. Like-named read-outs stand apart in the source and are kept apart here.

Key:
[1] = Isothermal titration calorimetry of CD/vinorelbine systems (titration and competition with SGM); format: physicochemical; conditions: 25° C.; for Binding constant / ΔbH° (inclusion enthalpy): vinorelbine-CD, phosphate buffer pH 7.0
Procedure: In the first instance, 12 CDs and CD derivatives supplied by Captisol® (Kansas, USA), SIGMA® (St Louis, Missouri, USA) and MSD® (New Jersey, USA) and authorized by the FDA or the European Medicines Agency (EMA) were tested (U.S Food and Drug Administration C for DE and. Food Additive Status List. FDA 2022. U.S Food and Drug Administration C for DE and. Select Committee on GRAS Substances 2022. Committee for Human Medicinal Products. Cyclodextrins used as excipients. EMA 2017:16). These were alpha-CD, beta-[…] (methyl-beta-CD, low substitution degree), RAMEB (methyl-beta-CD, higher substitution degree), DIMEB (di-O-methyl-beta-[…] (tri-O-methyl-beta-CD), HP-beta-CD (Hydroxypropyl-beta-CD), SBE-beta-CD (Sulfobutylether-beta-CD), gamma-CD, HP-gamma-CD (Hydroxypropyl-gamma-CD), SBE-gamma-CD (Sulfobutylether-gamma-CD), and sugammadex (SGM). Vinorelbine ditartrate and 50 mM CD solutions were prepared in phosphate buffer pH 7.0. […] To confirm the validity of the chosen stoichiometric model and to increase the accuracy of the thermodynamic parameters, each system was also subjected to a competition experiment with SGM: a solution of 0.5 mM vinorelbine and 10 mM CD titrated against a mixture containing 5 mM SGM and 10 mM CD. […] For all CDs the measurements were performed at 25° C., and the stirring speed was set at 1000 rpm. The resulting heat flux was recorded as a function of time. Prior to data analysis, blank titrations were performed under the same experimental conditions by injecting individual species into buffer, and/or buffer into species and buffer into buffer to determine the heat of dilution. […] The peak area after each injection was obtained by integration of the resulting signal and was expressed as the heat effect per injection. The binding constant (KB), inclusion enthalpy (ΔbH°), and heat capacity (ΔbCp®) were determined using a program developed by Bertaut and Landy involving a global analysis of all binding isotherms obtained for a given system (Bertaut et al. Beilstein J Org Chem 2014:12). A set of thermodynamic parameters was employed for simultaneous nonlinear regression analyses of titration and competition experiments.

[2] = Simulated complexation of vinorelbine in CD using the constants of Table 2; conditions: for CD concentration needed to obtain 95% of complexation: vinorelbine solution at 20 mg/mL (25.7 mmol/L)
Procedure: To obtain 95% of complexation for a solution at 20 mg/mL (ie 25.7 mmol/L), about 62 mmol/L of SGM or about 71 mmol/L of SBE-beta-CD is needed.
Using the constant values of Table 2, we simulated the complexation of vinorelbine in CD depending on the CD concentration and the final concentration of the vinorelbine solution. To achieve a concentration of 10 mg/mL, approximately 49 mmol/L sugammadex or 58 mmol/L SBE-beta-CD is required to reach 95% of complexation. For 18 mg/mL, approximately 59 mmol/L sugammadex or 68 mmol/L SBE-beta-CD is required to obtain the same complexation rate. […] This indicates a real and strong complexation between vinorelbine and cyclodextrin.

[3] = Haze / precipitate on mixing CD with vinorelbine (2D NMR sample preparation); format: physicochemical
Procedure: In order to confirm the type of existing interaction (inclusion complex, type of binding) between CD and vinorelbine, a two-dimensional proton NMR was performed on PA (Spitzer et al, J Heterocycl Chem 1995; 32:1255-9), CDs (Schneider et al, Chem Rev 1998; 98:1755-86) and complexes (Vogt et al, Mol Pharm 2012; 9:3357-74; Péan et al, J Chim Phys Phys-Chim Biol 1999; 96:1486-93). Vinorelbine 10 mM stock solution (SS) was prepared by dissolving 21.58 mg of vinorelbine tartrate in 2 mL of deuterated water. CD stock solutions were prepared by dissolving: 21.78 mg SGM in 1 mL heavy water (SS2), 9.73 mg alpha-CD in ImL heavy water (SS3), 21.63 mg SBE-beta-CD in 1 mL heavy water (SS4), and 20.72 mg SBE-gamma-CD in 1 mL heavy water (SS5). These stock solutions were used for the preparation of 10 samples containing vinorelbine, CDs or a mixture of CDs and vinorelbine in deuterated water as shown in Table 1.
A range of vinorelbine-SGM mixtures was performed from 1.5 mmol/L to 5 mmol/L. The haze appears from the mixture of concentration 2.5 mmol/L (sample 10).

[4] = system: EpiOral; format: cell-based; conditions: vinorelbine 20 mg/mL
Procedure: EpiOral were also used for immunohistology analysis as follow: 3 untreated tissues (negative control, NC), 3 tissues in contact with SBE-β-CD, 3 tissues in contact with vinorelbine at 20 mg/mL concentration, 3 tissues in contact with vinorelbine complexed with SBE-β-CD and 3 tissues in contact with 1% Triton X-100 (positive control, PC). Tissues samples were fixed with 4% PFA and embedded in paraffin. Sections (3 μm thick) were deparaffinized and were stained with Hematoxylin and Eosin (H&E). For immunofluorescence, slides were incubated overnight at 4° C. with primary antibodies diluted in 0.02% Triton X-100-PBS. Primary antibodies were as follows: rabbit anti-Ki67 (ab16667; 1/75; Abcam), mouse anti-E-Cadherin (ab1416; 1/100; Abcam), rabbit anti-Claudin 4 (ab210796; 1/200; Abcam), mouse anti-Cytokeratin 10 (ab9026; 1/100; Abcam), rabbit anti-Cytokeratin 13 (ab97327; 1/50; Abcam) and mouse anti-Cytokeratin 14 (ab7800; 1/50; Abcam). For immunofluorescence detection, secondary antibody Alexa Fluor™ plus 488 goat anti-mouse (1:200; Invitrogen A11029), Alexa Fluor™ plus 488 donkey anti-rabbit (1:200; Invitrogen A21206), Alexa Fluor™ plus 594 goat anti-mouse (1:200; Invitrogen A32742) and Alexa Fluor™ plus 594 goat anti-rabbit (1:200; Invitrogen A32740) were used. […]

[5] = cited from earlier work

| Molecule | Heat variation / interaction with vinorelbine in titration experiments [1] | Binding constant [1] | ΔbH° (inclusion enthalpy) [1] | CD concentration required to reach 95% of complexation ([2]; vinorelbine 10 mg/mL) | CD concentration required to reach 95% of complexation ([2]; vinorelbine 18 mg/mL) | CD concentration needed to obtain 95% of complexation [2] | Haze / precipitate when mixed with vinorelbine [3] | Concentration of vinorelbine-CD mixture from which haze appears ([3]; range 1.5 to 5 mmol/L, deuterated water) | Cytotoxicity / TUNEL marking [4] | E-cadherin marking (tight junctions) ([4]; Triton X-100 1%) | Solubility ([5]; aprotic solvents) | Solubility ([5]; methanol) | Solubility ([5]; water) |
| --- | --- | --- | --- | --- | --- | --- | --- | --- | --- | --- | --- | --- | --- |
| OC[C@H]1O[C@@H]2O[C@H]3[C@H](O)[C@@H](O)[C@@H](O[C@H]4[C@H](O)[C@@H](O)[C@@H](O[C@H]5[C@H](O)[C@@H](O)[C@@H](O[C@H]6[C@H](O)[C@@H](O)[C@@H](O[C@H]7[C@H](O)[C@@H](O)[C@@H](O[C@H]1[C@H](O)[C@H]2O)O[C@@H]7CO)O[C@@H]6CO)O[C@@H]5CO)O[C@@H]4CO)O[C@@H]3CO [Alpha-CD, alpha-cyclodextrin] | small heat variation | 106 L/mol | -1.185 kcal/mol |  |  |  |  |  |  |  |  |  |  |
| CCC1=C[C@@H]2CN(C1)Cc1c([nH]c3ccccc13)[C@@](C(=O)OC)(c1cc3c(cc1OC)N(C)[C@H]1[C@@](O)(C(=O)OC)[C@H](OC(C)=O)[C@]4(CC)C=CCN5CC[C@]31[C@@H]54)C2 [vinorelbine, vinorelbine ditartrate salt hydrate] |  |  |  |  |  |  |  |  | causes cell mortality and destroys tight tissue junctions | loss of E-cadherin marking | insoluble | partially soluble | totally soluble |
| sulfobutylether-beta-cyclodextrin [SBE-beta-CD] | an interaction is observed | 412 L/mol | +2305 cal/mol | ~58 mmol/L | ~68 mmol/L | about 71 mmol/L | does not produce any precipitate |  |  |  |  |  |  |

The next lines start with results.

| Heat variation / interaction with vinorelbine in titration experiments [1] | Binding constant [1] | ΔbH° (inclusion enthalpy) [1] | CD concentration required to reach 95% of complexation ([2]; vinorelbine 10 mg/mL) | CD concentration required to reach 95% of complexation ([2]; vinorelbine 18 mg/mL) | CD concentration needed to obtain 95% of complexation [2] | Haze / precipitate when mixed with vinorelbine [3] | Concentration of vinorelbine-CD mixture from which haze appears ([3]; range 1.5 to 5 mmol/L, deuterated water) | Molecule | Cytotoxicity / TUNEL marking [4] | E-cadherin marking (tight junctions) ([4]; Triton X-100 1%) | Solubility ([5]; aprotic solvents) | Solubility ([5]; methanol) | Solubility ([5]; water) |
| --- | --- | --- | --- | --- | --- | --- | --- | --- | --- | --- | --- | --- | --- |
| an interaction is observed | 511 L/mol | -3.177 kcal/mol | approximately 49 mmol/L | approximately 59 mmol/L | about 62 mmol/L | a haze appeared | ≥ 2500 µM | O=C(O)CCSC[C@H]1O[C@@H]2O[C@H]3[C@H](O)[C@@H](O)[C@@H](O[C@H]4[C@H](O)[C@@H](O)[C@@H](O[C@H]5[C@H](O)[C@@H](O)[C@@H](O[C@H]6[C@H](O)[C@@H](O)[C@@H](O[C@H]7[C@H](O)[C@@H](O)[C@@H](O[C@H]8[C@H](O)[C@@H](O)[C@@H](O[C@H]9[C@H](O)[C@@H](O)[C@@H](O[C@H]1[C@H](O)[C@H]2O)O[C@@H]9CSCCC(=O)O)O[C@@H]8CSCCC(=O)O)O[C@@H]7CSCCC(=O)O)O[C@@H]6CSCCC(=O)O)O[C@@H]5CSCCC(=O)O)O[C@@H]4CSCCC(=O)O)O[C@@H]3CSCCC(=O)O [SGM, sugammadex] |  |  |  |  |  |
| an interaction is observed | 121 L/mol | +514 cal/mol |  |  |  |  |  | Sulfobutylether-gamma-CD [SBE-gamma-CD] |  |  |  |  |  |
